Data reported in the NIST ThermoML archive (doi:10.1016/j.jct.2016.07.005).
± gives the expanded uncertainty stated by the source.

Columns and labels:
[1] = xn = mol fraction of the nth substance listed; settings: 100 kPa, Liquid, x2 = 0; for viscosity: Concentric cylinders viscometry; for mass density: Vibrating tube method
[2] = refractive index (Na D-line) (dimensionless); xn = mol fraction of the nth substance listed; settings: 100 kPa, Liquid, Standard Abbe refractometry, x2 = 0
[3] = 100 kPa, Liquid; for viscosity: Concentric cylinders viscometry; for mass density: Vibrating tube method
[4] = refractive index (Na D-line) (dimensionless); settings: 100 kPa, Liquid, Standard Abbe refractometry

CCC(C)O (centres undefined) [butan-2-ol] + CN1CCC[C@H]1c1cccnc1
Settings | mass density, [1] [kg/m3] | refractive index, [2] | viscosity, [1] [mPa·s]
293.15 K | 807.19 ± 1 | 1.39715 ± 0.00036 | 3.76 ± 0.077
298.15 K | 803.049 ± 1 | 1.39497 ± 0.00036 | 3.093 ± 0.064
303.15 K | 798.829 ± 1 | 1.39274 ± 0.00036 | 2.566 ± 0.053
308.15 K | 794.525 ± 1 | 1.39045 ± 0.00036 | 2.149 ± 0.044
313.15 K | 790.127 ± 1 | 1.38803 ± 0.00036 | 1.816 ± 0.038
318.15 K | 785.636 ± 1 | 1.38571 ± 0.00036 | 1.548 ± 0.032
323.15 K | 781.043 ± 1 | 1.38322 ± 0.00036 | 1.332 ± 0.028

CN1CCC[C@H]1c1cccnc1 [(-)-3-(N-methylpyrrolidino)pyridine]
Settings | mass density, [3] [kg/m3] | refractive index, [4] | viscosity, [3] [mPa·s]
293.15 K | 1010.23 ± 1 | 1.52665 ± 0.0004 | 4.694 ± 0.098
298.15 K | 1006.16 ± 1 | 1.52439 ± 0.0004 | 4.048 ± 0.085
303.15 K | 1002.1 ± 1 | 1.52214 ± 0.0004 | 3.518 ± 0.074
308.15 K | 998.055 ± 1 | 1.51988 ± 0.0004 | 3.088 ± 0.065
313.15 K | 994.014 ± 1 | 1.5179 ± 0.0004 | 2.758 ± 0.058
318.15 K | 989.984 ± 1 | 1.51592 ± 0.0004 | 2.411 ± 0.051
323.15 K | 985.962 ± 1 | 1.51373 ± 0.0004 | 2.195 ± 0.046

CCCCO [butan-1-ol] + CN1CCC[C@H]1c1cccnc1
Settings | mass density, [1] [kg/m3] | refractive index, [2] | viscosity, [1] [mPa·s]
293.15 K | 809.819 ± 1 | 1.39922 ± 0.00036 | 2.914 ± 0.06
298.15 K | 805.995 ± 1 | 1.39719 ± 0.00036 | 2.564 ± 0.053
303.15 K | 802.148 ± 1 | 1.39517 ± 0.00036 | 2.258 ± 0.047
308.15 K | 798.276 ± 1 | 1.39311 ± 0.00036 | 1.994 ± 0.041
313.15 K | 794.372 ± 1 | 1.39102 ± 0.00036 | 1.777 ± 0.037
318.15 K | 790.429 ± 1 | 1.38896 ± 0.00036 | 1.589 ± 0.033
323.15 K | 786.444 ± 1 | 1.38688 ± 0.00036 | 1.372 ± 0.029

CCCCO [butan-1-ol]
Settings | mass density, [3] [kg/m3] | refractive index, [4] | viscosity, [3] [mPa·s]
293.15 K | 809.819 ± 1 | 1.39922 ± 0.00036 | 2.914 ± 0.06
298.15 K | 805.995 ± 1 | 1.39719 ± 0.00036 | 2.564 ± 0.053
303.15 K | 802.148 ± 1 | 1.39517 ± 0.00036 | 2.258 ± 0.047
308.15 K | 798.276 ± 1 | 1.39311 ± 0.00036 | 1.994 ± 0.041
313.15 K | 794.372 ± 1 | 1.39102 ± 0.00036 | 1.777 ± 0.037
318.15 K | 790.429 ± 1 | 1.38896 ± 0.00036 | 1.589 ± 0.033
323.15 K | 786.444 ± 1 | 1.38688 ± 0.00036 | 1.372 ± 0.029
